Assay results published in patent publication EP1165610B1, “PEPTIDE USEFUL IN TREATING MULTIPLE SCLEROSIS AND A PHARMACEUTICAL COMPOSITION COMPRISING THE SAME” (TECNOGEN S.C.P.A., priority 1999, dated 2006).
Ends that are not written are not given here.

System: SJL female mice
Test: In vivo activity in experimental allergic encephalitis (EAE) model, pre-immunization with peptide before EAE induction
Conditions: for Incidence of EAE: number of mice with clinical EAE/number of mice immunized, after two weeks EAE induced with 300 nmoles P81-100 in CFA plus pertussis toxin, observed day 9 up to 60
Experimental: The in vivo activity of the peptide compounds of formula (I) (SEQ ID NO: 1), were evaluated on four groups of SJL female mice, used at the age of 6-15 weeks. This strain of mice has been genetically selected for its ability to develop experimental allergic encephalitis (EAE).
Two groups of mice have been immunized intraperitoneally with the peptide compound of formula (I) (SEQ ID NO: 1) (300 nmoles), dissolved in 0.05 ml of physiological solution and then emulsified with 0.05 ml of incomplete Freund's adjuvant (IFA) (Sigma, Italy).
As positive and negative control, P81-100 (SEQ ID NO: 5) and IFA alone were used respectively.
After two weeks EAE was induced in all groups by challenge with 300 nmoles of P81-100 (SEQ ID NO: 5) dissolved in 0.1 ml of physiological solution and then emulsified with 0.1 ml of complete Freund's adjuvant (CFA) (Sigma, Italy).
Pertussis toxin (200 ng) (Fluka Chemie AG, Switzerland) was injected intravenously at the time of immunization and 2 days later. The role of pertussis toxin is to enhance the migration of autoreactive lymphocytes through the encephalic barrier (Bernard, et al., "J. Immunol." 114, 1537-1540, 1975).
Mice were observed daily beginning at day 9 up to 60 for clinical signs of EAE and were graded according to the following clinical scale: 1, limp tail; 2, partial hind limp paralysis; 3, complete hind limp paralysis; 4, hind and front limp paralysis; 5, moribund (Broke S. et al., "Nature", 379, 343-346, 1996). Grade 5 mice were euthanized.

[1] = 300 nmoles intraperitoneally in IFA

| Compound | Day of on-set (mean day of onset ± SD, 300 nmoles intraperitoneally in IFA, after two weeks EAE induced with 300 nmoles P81-100 in CFA) | Severity (mean severity of sick mice ± SD, clinical scale 1-5, 300 nmoles intraperitoneally in IFA, after two weeks EAE induced with 300 nmoles P81-100 in CFA) | Incidence of EAE [1] | development of EAE (result in words, summary of Table 1, SJL mice treated with peptide before EAE induction) |
| --- | --- | --- | --- | --- |
| CC[C@H](C)[C@H](NC(=O)[C@H](CC(N)=O)NC(=O)[C@H](CCCCN)NC(=O)[C@H](Cc1ccccc1)NC(=O)[C@H](Cc1ccccc1)NC(=O)[C@H](Cc1c[nH]cn1)NC(=O)[C@@H](NC(=O)[C@@H](NC(=O)[C@@H]1CCCN1C(=O)[C@@H](N)CC(N)=O)C(C)C)C(C)C)C(=O)N[C@H](C(=O)N[C@H](C(=O)N1CCC[C@H]1C(=O)N[C@@H](CCCNC(=N)N)C(=O)N[C@H](C(=O)N1CCC[C@H]1C(=O)N1CCC[C@H]1C(=O)N1CCC[C@H]1C(=O)N[C@@H](CO)C(=O)N[C@@H](CCC(N)=O)C(=O)O)[C@@H](C)O)[C@@H](C)O)C(C)C [Peptide P81-100] | 33±4.24 | 1.0±0 | 2/17 | – |
| NGVGHGFGNGVGPGTGPGSG [Peptide I] | – | – | 0/17 | didn't develop EAE |
